{"source": "patent US11053204B2", "about": "“Pyrimidinyloxy benzene derivatives as herbicides” (FMC Corporation, priority 2015, dated 2021)", "assay_type_in_all_cases": "in vivo", "key": {"[1]": {"system": "Italian ryegrass (Lolium multiflorum)", "assay": "Test A preemergence, visual injury rating", "method_in_brief": "(§1)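 Injury scores run from 0, no effect, to 100, complete control, judged by eye against untreated plants roughly 10 days after treatment. Chemicals carried a surfactant in a non-phytotoxic solvent and went onto loam–sand soil preemergence or onto one- to two-leaf seedlings postemergence.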"}, "[2]": {"system": "barnyardgrass (Echinochloa crus-galli)", "assay": "Test A preemergence, visual injury rating", "method_in_brief": "as §1"}, "[3]": {"system": "giant foxtail (Setaria faberii)", "assay": "Test A preemergence, visual injury rating", "method_in_brief": "as §1"}, "kochia (Kochia scoparia)": {"system": "kochia (Kochia scoparia)", "assay": "Test A preemergence, visual injury rating", "method_in_brief": "as §1"}, "[4]": {"system": "ragweed (common ragweed, Ambrosia elatior)", "assay": "Test A preemergence, visual injury rating", "method_in_brief": "as §1"}, "[5]": {"system": "blackgrass (Alopecurus myosuroides)", "assay": "Test C postemergence, plant response rating", "settings": "for Plant response rating, Blackgrass: scale 0 to 100; for Blackgrass plant response rating: scale 0 to 100 (0 no effect, 100 complete control)", "excerpt": "(§2) Seeds of plant species selected from blackgrass (Alopecurus myosuroides), ryegrass, Italian (Italian ryegrass, Lolium multiflorum), wheat (winter wheat, Triticum aestivum), galium (catchweed bedstraw, Galium aparine), corn (Zea mays), crabgrass, large (large crabgrass, Digitaria sanguinalis), foxtail, giant (giant foxtail, Setaria faberii), johnsongrass (Sorghum halepense), lambsquarters (Chenopodium album), morningglory (Ipomoea coccinea), nutsedge, yellow (yellow nutsedge, Cyperus esculentus), pigweed (Amaranthus retroflexus), ragweed (common ragweed, Ambrosia elatior), soybean (Glycine max), barnyardgrass (Echinochloa crus-galli), oilseed rape (Brassica napus), pigweed, palmer (palmer pigweed, Amaranthus palmeri), waterhemp (common waterhemp, Amaranthus rudis), velvetleaf (Abutilon theophrasti), kochia (Kochia scoparia), surinam grass (Brachiaria decumbens), nightshade (eastern black nightshade, Solanum ptycanthum), wild poinsettia (Euphorbia heterophylla), windgrass (Apera spica-venti), and oat, wild (wild oat Avena fatua), were planted into a blend of loam soil and sand or a silt loam soil and treated preemergence with test chemicals formulated in a non-phytotoxic solvent mixture which included a surfactant.\n(§3) At the same time, plants selected from these crop and weed species and also chickweed (common chickweed, Stellaria media), buckwheat, wild (wild buckwheat, Polygonum convolvulus), wild mustard (Sinapis arvensis), field poppy (Papaver rhoeas), field violet (Viola arvensis), geranium, cutleaf (cutleaf geranium, Geranium dissectum), Canada thistle (Cirsium arvense), and speedwell (bird's-eye speedwell, Veronica persica), were planted in pots containing Sunshine Redi-Earth® planting medium comprising spaghnum peat moss, vermiculite, starter nutrients and dolomitic limestone and treated with postemergence applications of test chemicals formulated in the same manner. Plants ranged in height from 2 to 18 cm (1- to 4-leaf stage) for postemergence treatments. Treated plants and controls were maintained in a greenhouse for 13 to 15 d, after which time all species were compared to controls and visually evaluated. Plant response ratings, summarized in Table C, are based on a scale of 0 to 100 where 0 is no effect and 100 is complete control. A dash (-) response means no test result."}, "[6]": {"system": "chickweed (common chickweed, Stellaria media)", "assay": "Test C postemergence, plant response rating", "settings": "for Chickweed plant response rating: scale 0 to 100 (0 no effect, 100 complete control)", "excerpt": "as §2, §3"}, "corn (Zea mays)": {"system": "corn (Zea mays)", "assay": "Test C postemergence, plant response rating", "settings": "for Corn plant response rating: scale 0 to 100 (0 no effect, 100 complete control)", "excerpt": "as §2, §3"}, "[7]": {"system": "crabgrass, large (large crabgrass, Digitaria sanguinalis)", "assay": "Test C postemergence, plant response rating", "settings": "for Crabgrass, Large plant response rating: scale 0 to 100 (0 no effect, 100 complete control)", "excerpt": "as §2, §3"}, "[8]": {"system": "foxtail, giant (giant foxtail, Setaria faberii)", "assay": "Test C postemergence, plant response rating", "settings": "for Foxtail, Giant plant response rating: scale 0 to 100 (0 no effect, 100 complete control)", "excerpt": "as §2, §3"}, "[9]": {"system": "galium (catchweed bedstraw, Galium aparine)", "assay": "Test C postemergence, plant response rating", "settings": "for Galium plant response rating: scale 0 to 100 (0 no effect, 100 complete control)", "excerpt": "as §2, §3"}, "[10]": {"system": "lambsquarters (Chenopodium album)", "assay": "Test C postemergence, plant response rating", "settings": "for Lambsquarters plant response rating: scale 0 to 100 (0 no effect, 100 complete control)", "excerpt": "as §2, §3"}, "[11]": {"system": "nutsedge, yellow (yellow nutsedge, Cyperus esculentus)", "assay": "Test C postemergence, plant response rating", "settings": "for Nutsedge, Yellow plant response rating: scale 0 to 100 (0 no effect, 100 complete control)", "excerpt": "as §2, §3"}, "[12]": {"system": "oat, wild (wild oat Avena fatua)", "assay": "Test C postemergence, plant response rating", "settings": "for Oat, Wild plant response rating: scale 0 to 100 (0 no effect, 100 complete control)", "excerpt": "as §2, §3"}, "[13]": {"system": "ryegrass, Italian (Italian ryegrass, Lolium multiflorum)", "assay": "Test C postemergence, plant response rating", "settings": "for Ryegrass, Italian plant response rating: scale 0 to 100 (0 no effect, 100 complete control)", "excerpt": "as §2, §3"}, "soybean (Glycine max)": {"system": "soybean (Glycine max)", "assay": "Test C postemergence, plant response rating", "settings": "for Soybean plant response rating: scale 0 to 100 (0 no effect, 100 complete control)", "excerpt": "as §2, §3"}, "[14]": {"system": "wheat (winter wheat, Triticum aestivum)", "assay": "Test C postemergence, plant response rating", "excerpt": "as §2, §3"}, "[15]": {"settings": "31 g ai/ha, 0 to 100 scale, 0 no effect, 100 complete control"}, "[16]": {"settings": "125 g ai/ha, 0 to 100 scale (0 no effect, 100 complete control)"}}, "data": [{"smiles": "O=C(CCCC(F)(F)F)c1c(Cl)cccc1Oc1ncc(Cl)cn1", "note": "[Compound 143]", "values": [{"measurement": "Plant response rating, Ryegrass, Italian", "setting": "[1]; [15]", "result": 20}, {"measurement": "Plant response rating, Ryegrass, Italian", "setting": "[1]; [16]", "result": 70}, {"measurement": "Plant response rating, Barnyardgrass", "setting": "[2]; [15]", "result": 20}, {"measurement": "Plant response rating, Barnyardgrass", "setting": "[2]; [16]", "result": 100}, {"measurement": "Plant response rating, Foxtail, Giant", "setting": "[3]; [15]", "result": 100}, {"measurement": "Plant response rating, Foxtail, Giant", "setting": "[3]; [16]", "result": 100}, {"measurement": "Plant response rating, Kochia", "setting": "kochia (Kochia scoparia); [15]", "result": 100}, {"measurement": "Plant response rating, Kochia", "setting": "kochia (Kochia scoparia); [16]", "result": 100}, {"measurement": "Plant response rating, Ragweed", "setting": "[4]; [15]", "result": 0}, {"measurement": "Plant response rating, Ragweed", "setting": "[4]; [16]", "result": 0}, {"measurement": "Plant response rating, Blackgrass", "setting": "[5]; 16 g ai/ha", "result": 10}, {"measurement": "Plant response rating, Blackgrass", "setting": "[5]; 31 g ai/ha", "result": 15}, {"measurement": "Blackgrass plant response rating", "setting": "[5]; 62 g ai/ha", "result": 15}, {"measurement": "Blackgrass plant response rating", "setting": "[5]; 125 g ai/ha", "result": 40}, {"measurement": "Plant response rating, Chickweed", "setting": "[6]; 16 g ai/ha, scale of 0 to 100", "result": 80}, {"measurement": "Plant response rating, Chickweed", "setting": "[6]; 31 g ai/ha, scale 0 to 100", "result": 80}, {"measurement": "Chickweed plant response rating", "setting": "[6]; 62 g ai/ha", "result": 85}, {"measurement": "Chickweed plant response rating", "setting": "[6]; 125 g ai/ha", "result": 100}, {"measurement": "Plant response rating, Corn", "setting": "corn (Zea mays); 16 g ai/ha, scale of 0 to 100", "result": 15}, {"measurement": "Plant response rating, Corn", "setting": "corn (Zea mays); 31 g ai/ha, scale 0 to 100", "result": 20}, {"measurement": "Corn plant response rating", "setting": "corn (Zea mays); 62 g ai/ha", "result": 20}, {"measurement": "Corn plant response rating", "setting": "corn (Zea mays); 125 g ai/ha", "result": 30}, {"measurement": "Plant response rating, Crabgrass, Large", "setting": "[7]; 16 g ai/ha, scale of 0 to 100", "result": 5}, {"measurement": "Plant response rating, Crabgrass, Large", "setting": "[7]; 31 g ai/ha, scale 0 to 100", "result": 5}, {"measurement": "Crabgrass, Large plant response rating", "setting": "[7]; 62 g ai/ha", "result": 15}, {"measurement": "Crabgrass, Large plant response rating", "setting": "[7]; 125 g ai/ha", "result": 30}, {"measurement": "Plant response rating, Foxtail, Giant", "setting": "[8]; 16 g ai/ha, scale of 0 to 100", "result": 20}, {"measurement": "Plant response rating, Foxtail, Giant", "setting": "[8]; 31 g ai/ha, scale 0 to 100", "result": 10}, {"measurement": "Foxtail, Giant plant response rating", "setting": "[8]; 62 g ai/ha", "result": 10}, {"measurement": "Foxtail, Giant plant response rating", "setting": "[8]; 125 g ai/ha", "result": 25}, {"measurement": "Plant response rating, Galium", "setting": "[9]; 16 g ai/ha, scale of 0 to 100", "result": 75}, {"measurement": "Plant response rating, Galium", "setting": "[9]; 31 g ai/ha, scale 0 to 100", "result": 85}, {"measurement": "Galium plant response rating", "setting": "[9]; 62 g ai/ha", "result": 80}, {"measurement": "Galium plant response rating", "setting": "[9]; 125 g ai/ha", "result": 95}, {"measurement": "Plant response rating, Lambsquarters", "setting": "[10]; 16 g ai/ha, scale of 0 to 100", "result": 75}, {"measurement": "Plant response rating, Lambsquarters", "setting": "[10]; 31 g ai/ha, scale 0 to 100", "result": 90}, {"measurement": "Lambsquarters plant response rating", "setting": "[10]; 62 g ai/ha", "result": 90}, {"measurement": "Lambsquarters plant response rating", "setting": "[10]; 125 g ai/ha", "result": 95}, {"measurement": "Plant response rating, Nutsedge, Yellow", "setting": "[11]; 16 g ai/ha, scale of 0 to 100", "result": 0}, {"measurement": "Plant response rating, Nutsedge, Yellow", "setting": "[11]; 31 g ai/ha, scale 0 to 100", "result": 5}, {"measurement": "Nutsedge, Yellow plant response rating", "setting": "[11]; 62 g ai/ha", "result": 5}, {"measurement": "Nutsedge, Yellow plant response rating", "setting": "[11]; 125 g ai/ha", "result": 25}, {"measurement": "Plant response rating, Oat, Wild", "setting": "[12]; 16 g ai/ha, scale of 0 to 100", "result": 10}, {"measurement": "Plant response rating, Oat, Wild", "setting": "[12]; 31 g ai/ha, scale 0 to 100", "result": 10}, {"measurement": "Oat, Wild plant response rating", "setting": "[12]; 62 g ai/ha", "result": 10}, {"measurement": "Oat, Wild plant response rating", "setting": "[12]; 125 g ai/ha", "result": 20}, {"measurement": "Plant response rating, Ryegrass, Italian", "setting": "[13]; 16 g ai/ha, scale of 0 to 100", "result": 5}, {"measurement": "Plant response rating, Ryegrass, Italian", "setting": "[13]; 31 g ai/ha, scale 0 to 100", "result": 10}, {"measurement": "Ryegrass, Italian plant response rating", "setting": "[13]; 62 g ai/ha", "result": 10}, {"measurement": "Ryegrass, Italian plant response rating", "setting": "[13]; 125 g ai/ha", "result": 20}, {"measurement": "Plant response rating, Soybean", "setting": "soybean (Glycine max); 16 g ai/ha, scale of 0 to 100", "result": 30}, {"measurement": "Plant response rating, Soybean", "setting": "soybean (Glycine max); 31 g ai/ha, scale 0 to 100", "result": 40}, {"measurement": "Soybean plant response rating", "setting": "soybean (Glycine max); 62 g ai/ha", "result": 55}, {"measurement": "Soybean plant response rating", "setting": "soybean (Glycine max); 125 g ai/ha", "result": 65}, {"measurement": "Plant response rating, Wheat", "setting": "[14]; 16 g ai/ha, scale of 0 to 100", "result": 5}, {"measurement": "Plant response rating, Wheat", "setting": "[14]; 31 g ai/ha, scale 0 to 100", "result": 10}, {"measurement": "Wheat plant response rating", "setting": "[14]; 125 g ai/ha, scale 0 to 100 (0 no effect, 100 complete control)", "result": 30}]}]}
